Assays:
[1] = test system: MINO; assay: Cell viability assay; type: cell-based; conditions: Homo sapiens, 24 h; MINO (NHL); read-out: AZD5991 24h GI50
Protocol: (§2) Cells were plated at 3000 cells/well in 384-well white plates in corresponding cell growth media. […] Caspase-3/7 activation was subsequently determined using a Caspase-Glo 3/7 Reagent (Promega) and viability was assayed using the CellTiter-Glo Reagent (Promega) as described in manufacturer’s instructions. Dose–response curves for caspase-3/7 activation and viability were plotted and analyzed (including EC50 and GI50 determination) using GraphPad Prism.

[2] = test system: Eμ-Myc lymphoma cells stably expressing human Bcl-xL; assay: Apoptosis induction in Eμ-Myc lymphoma cells; conditions: overexpression of Bcl-xL, 24 h
Description: The retroviral plasmids to express human Bcl-2 family members in murine Eμ-Myc lymphoma cells are MSCV-hMCL-1-GFP, MSCV-hBCL-2-GFP, MSCV-hBCL-XL-GFP, MSCV-hBFL-1/A1-GFP, and MSCV-hBCL-w-GFP. To produce viruses, constructs of interest were co-transfected into HEK293T cells with the plasmid encoding the packaging viruses (p-CL-AMPHO provided by Phillip Darcy from Peter MacCallum Cancer Center, Melbourne, Australia) using standard calcium phosphate transient transfection technique. The retroviruses were harvested, filtered and used to infect target cells following standard procedures.
Samples were then centrifuged, washed twice with PBS and analyzed by flow cytometry in a BD LSRFortessa. FACSDiva software was used for data collection and FlowJo software for data analysis.

[3] = test system: G361; assay: Cell viability assay; type: cell-based; conditions: Homo sapiens, G-361, 24 h; G361 (Skin); read-out: AZD5991 24h GI50
Protocol: as §2

[4] = test system: BT20; assay: Cell viability assay; type: cell-based; conditions: Homo sapiens, BT-20, 24 h; BT20 (Breast); read-out: AZD5991 24h GI50
Protocol: as §2

[5] = Plasma protein binding in fetal calf serum; type: in vitro ADME; conditions: bovine, read-out: plasma protein binding, free
[6] = test system: HBL1; assay: Cell viability assay; type: cell-based; conditions: 24 h; HBL1 (NHL); read-out: AZD5991 24h GI50
Protocol: as §2

[7] = test system: RPMI8226; assay: Cell viability assay; type: cell-based; conditions: Homo sapiens, RPMI-8226, 24 h; RPMI8226 (MM); read-out: AZD5991 24h GI50
Protocol: as §2

[8] = test system: A375; assay: cells; conditions: Homo sapiens, A-375, 6 h, read-out: AZD5991 6h EC50
In short: (§1)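 Cells were seeded at 3000 cells/well in their respective growth media and treated with compound. Caspase-3/7 activation was read by Caspase-Glo 3/7 luminescence and viability by CellTiter-Glo; EC50 and GI50 came from dose–response curves. Caspase activation is expressed relative to a cell-kill control set at 100%.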

[9] = test system: A253; assay: cells; conditions: Homo sapiens, A253, 6 h, read-out: AZD5991 6h EC50
In short: as §1

[10] = test system: RI1; assay: cells; conditions: Ri-1, 6 h, read-out: AZD5991 6h EC50
In short: as §1

[11] = test system: EVSAT; assay: cells; conditions: Homo sapiens, EVSA-T, 6 h, read-out: AZD5991 6h EC50
In short: as §1

[12] = test system: Sudhl8; assay: cells; conditions: Homo sapiens, SU-DHL-8, 6 h, read-out: AZD5991 6h EC50
In short: as §1

[13] = test system: OCILY7; assay: cells; conditions: Homo sapiens, OCI-Ly7, 6 h, read-out: AZD5991 6h EC50
In short: as §1

[14] = test system: ULA; assay: cells; conditions: 6 h, read-out: AZD5991 6h EC50
In short: as §1

[15] = test system: DMS79; assay: cells; conditions: Homo sapiens, DMS-79, 6 h, read-out: AZD5991 6h EC50
In short: as §1

[16] = test system: SBC5; assay: cells; conditions: Homo sapiens, SBC-5, 6 h, read-out: AZD5991 6h EC50
In short: as §1

[17] = test system: DMS53; assay: cells; conditions: Homo sapiens, DMS-53, 6 h, read-out: AZD5991 6h EC50
In short: as §1

[18] = test system: GRANTA519; assay: cells; conditions: Homo sapiens, Granta-519, 6 h, read-out: AZD5991 6h EC50
In short: as §1

[19] = test system: H446; assay: cells; conditions: Homo sapiens, NCI-H446, 6 h, read-out: AZD5991 6h EC50
In short: as §1

[20] = test system: DLD1; assay: cells; conditions: Homo sapiens, DLD-1, 6 h, read-out: AZD5991 6h EC50
In short: as §1

[21] = test system: DOHH2; assay: cells; conditions: Homo sapiens, DOHH-2, 6 h, read-out: AZD5991 6h EC50
In short: as §1

[22] = test system: H2126; assay: cells; conditions: Homo sapiens, NCI-H2126, 6 h, read-out: AZD5991 6h EC50
In short: as §1

[23] = test system: GIST 430/654; assay: cells; conditions: GIST-430/654, 6 h, read-out: AZD5991 6h EC50
In short: as §1

[24] = test system: MINO; assay: cells; conditions: Homo sapiens, 6 h, read-out: AZD5991 6h EC50
In short: as §1

[25] = test system: H345; assay: cells; conditions: Homo sapiens, NCI-H345, 6 h, read-out: AZD5991 6h EC50
In short: as §1

[26] = test system: A101D; assay: cells; conditions: Homo sapiens, 6 h, read-out: AZD5991 6h EC50
In short: as §1

[27] = test system: EJM; assay: cells; conditions: Homo sapiens, 6 h, read-out: AZD5991 6h EC50
In short: as §1

[28] = test system: H2122; assay: cells; conditions: Homo sapiens, NCI-H2122, 6 h, read-out: AZD5991 6h EC50
In short: as §1

[29] = test system: OCILY3; assay: cells; conditions: Homo sapiens, OCI-Ly3, 6 h, read-out: AZD5991 6h EC50
In short: as §1

[30] = test system: H2171; assay: cells; conditions: Homo sapiens, NCI-H2171, 6 h, read-out: AZD5991 6h EC50
In short: as §1

[31] = test system: H322; assay: cells; conditions: NCI-H322, 6 h, read-out: AZD5991 6h EC50
In short: as §1

[32] = test system: JVM2; assay: cells; conditions: Homo sapiens, JVM-2, 6 h, read-out: AZD5991 6h EC50
In short: as §1

[33] = test system: T47D; assay: cells; conditions: Homo sapiens, 6 h, read-out: AZD5991 6h EC50
In short: as §1

[34] = test system: SKMEL24; assay: cells; conditions: Homo sapiens, SK-MEL-24, 6 h, read-out: AZD5991 6h EC50
In short: as §1

[35] = test system: Namalwa; assay: cells; conditions: 6 h, read-out: AZD5991 6h EC50
In short: as §1

In the case of `Cc1c2c(nn1C)CSCc1cc(n(C)n1)CSc1cc(c3ccccc3c1)OCCCc1c(C(=O)O)n(C)c3c-2c(Cl)ccc13` (atropisomer, axis not shown; (Ra)) [(Ra)-7], the GI50 [1] is reported as 149 nM, the apoptosis-inducing activity [2] is reported as “blocked” and the GI50 [3] is reported as 404 nM. It also gave a GI50 [4] of 4630 nM, a fraction unbound [5] of 0.001 and a GI50 [6] of 8320 nM. The GI50 [7] was 55 nM, the EC50 [8] was greater than 30000 nM and the EC50 [9] was greater than 30000 nM. The EC50 [10] was greater than 30000 nM, the EC50 [11] was 160 nM and the EC50 [12] was 595 nM. It also gave an EC50 [13] of 36 nM, an EC50 [14] of 207 nM and an EC50 [15] greater than 30000 nM. It also gave an EC50 [16] of 1120 nM, an EC50 [17] greater than 30000 nM and an EC50 [18] greater than 30000 nM. For the same molecule, the EC50 [19] was greater than 30000 nM, the EC50 [20] was 29100 nM and the EC50 [21] was 136 nM. The EC50 [22] was 157 nM, the EC50 [23] was 18600 nM and the EC50 [24] was 1290 nM. It also gave an EC50 [25] greater than 30000 nM, an EC50 [26] of 1520 nM and an EC50 [27] of 169 nM. For the same molecule, the EC50 [28] was 15200 nM, the EC50 [29] was greater than 30000 nM and the EC50 [30] was 141 nM. It also gave an EC50 [31] greater than 30000 nM, an EC50 [32] of 1030 nM and an EC50 [33] greater than 30000 nM. The EC50 [34] was greater than 30000 nM and the EC50 [35] was 67 nM.
